Data reported in US20250163104A1, “MACROCYCLIC IMMUNOMODULATORS” (priority 2021, published 2025).
Where a SMILES comes first, the peptide text is derived from it. Bridges are numbered along the chain shown (N, C = ends). [ ]: non-standard residue; d: D form. The star is where a group is joined. ξ: configuration not given here. Phe(3-CF3) = N[C@@H](Cc1cccc(C(F)(F)F)c1)C(=O)O; Ala(morpholin-4-yl) = N[C@@H](CN1CCOCC1)C(=O)O; Phe(4-COOH) = N[C@@H](Cc1ccc(C(=O)O)cc1)C(=O)O; Bip = N[C@@H](Cc1ccc(-c2ccccc2)cc1)C(=O)O; Phe(3-Me) = Cc1cccc(C[C@H](N)C(=O)O)c1; hPhe = N[C@@H](CCc1ccccc1)C(=O)O; 3Pal = N[C@@H](Cc1cccnc1)C(=O)O; 4Pal = N[C@@H](Cc1ccncc1)C(=O)O; Cha = N[C@@H](CC1CCCCC1)C(=O)O; Cit = NC(=O)NCCC[C@H](N)C(=O)O; Ile(3ξ) = CCC(C)[C@H](N)C(=O)O; dCha = N[C@H](CC1CCCCC1)C(=O)O; Thr(3ξ) = CC(O)[C@H](N)C(=O)O; Carboxymethyl = O=C(O)C*; Orn = NCCC[C@H](N)C(=O)O; Dab = NCC[C@H](N)C(=O)O; Dap = NC[C@H](N)C(=O)O; Piv = CC(C)(C)C(=O)*

molecular target: T1, human PD-1 / PD-L1-Ig binding on Jurkat cell line over-expressing human PD-1 (Jurkat-PD-1) (Homo sapiens, UniProt Q15116); assay: Jurkat-PD-1 Cell Binding High-Content Screening Assay (CBA); type: cell-based; conditions: Jurkat-PD-1 cells, PE-labeled PD-L1-Ig 20 nM final; read-out: Jurkat HPD1_PDL1 IC50
T1 construct: expressed in transfected cells; host or cells: Jurkat
T1 sequence (Q15116 25-288): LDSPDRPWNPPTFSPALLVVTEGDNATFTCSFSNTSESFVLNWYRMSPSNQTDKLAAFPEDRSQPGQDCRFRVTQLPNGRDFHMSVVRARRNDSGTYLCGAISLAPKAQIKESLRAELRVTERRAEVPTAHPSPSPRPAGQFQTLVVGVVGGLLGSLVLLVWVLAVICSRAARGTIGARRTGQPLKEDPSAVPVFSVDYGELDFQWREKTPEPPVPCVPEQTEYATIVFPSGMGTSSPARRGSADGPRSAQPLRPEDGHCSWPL
Method in brief: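 Jurkat-hPD-1 cells in DMEM with 10% fetal calf serum receive test compound and are held at 37° C for 2 h. PE-labeled PD-L1-Ig is added at 20 nM final and left for 1 hour. Cells are then fixed and Hoechst-stained, and binding is measured by imaging.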

| Compound | IC50 [nM] |
| --- | --- |
| Cc1cccc(C[C@@H]2NC(=O)[C@H](CC(=O)O)NC(=O)[C@H](Cc3ccc(OCC(=O)O)cc3)NC(=O)[C@H](CN)NC(=O)CSC[C@@H](C(=O)N[C@@H](C)C(N)=O)NC(=O)[C@H](CN)NC(=O)[C@H](C(C)C)NC(=O)[C@H](CC3CCCCC3)NC(=O)[C@H](CCN)NC(=O)[C@@H](CC(C)C)NC(=O)[C@H](CCCN)NC(=O)[C@H](C(C)C)NC(=O)[C@H](Cc3ccc(-c4ccccc4)cc3)NC(=O)[C@H](C(C)C)NC2=O)c1 [Compound 1753] ({CH2CO}-[Dap]Y(Carboxymethyl)D[Phe(3-Me)]V[Bip]V[Orn][dL][Dab][Cha]V[Dap]CA-NH2; thioether N-14) | 5.1 |
| Cc1cccc(C[C@@H]2NC(=O)[C@H](CC(=O)O)NC(=O)[C@H](Cc3ccc(O)cc3)NC(=O)[C@H](CC(N)=O)NC(=O)CSC[C@@H](C(N)=O)NC(=O)[C@H]([C@@H](C)O)NC(=O)[C@H](C(C)C)NC(=O)[C@H](CC(C)C)NC(=O)[C@H](CCN)NC(=O)[C@@H](CC(C)C)NC(=O)[C@H](CCCN)NC(=O)[C@H](C(C)C)NC(=O)[C@H](Cc3ccc(-c4ccccc4)cc3)NC(=O)[C@H](C(C)C)NC2=O)c1 [Compound 1648] ({CH2CO}-NYD[Phe(3-Me)]V[Bip]V[Orn][dL][Dab]LVTC-NH2; thioether N-14) | 97 |
| Cc1cccc(C[C@@H]2NC(=O)[C@H](CC(=O)O)NC(=O)[C@H](Cc3ccc(OCC(=O)O)cc3)NC(=O)[C@H](CCNC(=O)C(C)(C)C)NC(=O)CSC[C@@H](C(=O)N[C@@H](CCN)C(N)=O)NC(=O)[C@H](CCCN)NC(=O)[C@H](C(C)C)NC(=O)[C@H](CC3CCCCC3)NC(=O)[C@H](CCN)NC(=O)[C@@H](CC(C)C)NC(=O)[C@H](CCCN)NC(=O)[C@H](Cc3ccc(O)cc3)NC(=O)[C@H](Cc3ccc(-c4ccccc4)cc3)NC(=O)[C@H](Cc3ccc(O)cc3)NC2=O)c1 [Compound 2040] ({CH2CO}-[Dab](Piv)Y(Carboxymethyl)D[Phe(3-Me)]Y[Bip]Y[Orn][dL][Dab][Cha]V[Orn]C[Dab]-NH2; thioether N-14) | 4.9 |
| CC(C)C[C@H]1NC(=O)[C@H](CCCN)NC(=O)[C@H](CCC(=O)O)NC(=O)[C@H](Cc2ccc(-c3ccccc3)cc2)NC(=O)[C@H](C(C)C)NC(=O)[C@H](Cc2c[nH]c3ccccc23)NC(=O)[C@H](CC(=O)O)NC(=O)[C@H](Cc2ccc(OCC(=O)O)cc2)NC(=O)[C@H](CN)NC(=O)CSC[C@@H](C(=O)N[C@@H](C)C(N)=O)NC(=O)[C@H]([C@@H](C)O)NC(=O)[C@H](C(C)C)NC(=O)[C@H](Cc2cscn2)NC(=O)[C@H](CCN)NC1=O [Compound 1510] | 25.7 |
| CCC[C@@H]1NC(=O)[C@H](Cc2c[nH]c3ccccc23)NC(=O)[C@H](CC(=O)O)NC(=O)[C@H](Cc2ccc(OCC(=O)O)cc2)NC(=O)[C@H](CN)NC(=O)CSC[C@@H](C(=O)N[C@@H](C)C(N)=O)NC(=O)[C@H]([C@@H](C)O)NC(=O)[C@H](C(C)C)NC(=O)[C@H](CC2CCCCC2)NC(=O)[C@H](CCN)NC(=O)[C@@H](CC(C)C)NC(=O)[C@H](CCCN)NC(=O)[C@H](CCCNC(N)=O)NC(=O)[C@H](Cc2ccc(-c3ccccc3)cc2)NC1=O [Compound 1355] | 8.2 |
| CC(C)C[C@@H]1NC(=O)[C@H](Cc2c[nH]c3ccccc23)NC(=O)[C@H](CC(=O)O)NC(=O)[C@H](Cc2ccc(O)cc2)NC(=O)[C@H](Cc2ccccc2)NC(=O)CSC[C@@H](C(=O)N[C@@H](C)C(N)=O)NC(=O)[C@H]([C@@H](C)O)NC(=O)[C@H](C(C)C)NC(=O)[C@H](CC(C)C)NC(=O)[C@H](CC(N)=O)NC(=O)[C@@H](C)NC(=O)[C@H](CN)NC(=O)[C@H](C(C)C)NC(=O)[C@H](Cc2ccc(-c3ccccc3)cc2)NC1=O [Compound 1076] ({CH2CO}-FYDWL[Bip]V[Dap][dA]NLVTCA-NH2; thioether N-14) | 68.7 |
| CC(C)C[C@@H]1NC(=O)[C@H](CCCCN)NC(=O)[C@@H](CC(C)C)NC(=O)[C@H](CCCN)NC(=O)[C@H](Cc2cnc[nH]2)NC(=O)[C@H](Cc2ccc(-c3ccccc3)cc2)NC(=O)[C@H](C(C)C)NC(=O)[C@H](Cc2c[nH]c3ccccc23)NC(=O)[C@H](CC(=O)O)NC(=O)[C@H](Cc2ccc(O)cc2)NC(=O)[C@H](CC(N)=O)NC(=O)CSC[C@@H](C(=O)NCC(N)=O)NC(=O)[C@H]([C@@H](C)O)NC(=O)[C@H](C(C)C)NC1=O [Compound 1136] ({CH2CO}-NYDWV[Bip]H[Orn][dL]KLVTCG-NH2; thioether N-14) | 50.8 |
| CC(C)[C@@H]1NC(=O)[C@H](Cc2c[nH]c3ccccc23)NC(=O)[C@H](CC(=O)O)NC(=O)[C@H](Cc2ccncc2)NC(=O)[C@H](Cc2ccc(OCC(=O)O)cc2)NC(=O)CSC[C@@H](C(=O)N[C@@H](C)C(N)=O)NC(=O)[C@H]([C@@H](C)O)NC(=O)[C@H](C(C)C)NC(=O)[C@H](CC2CCCCC2)NC(=O)[C@H](CCN)NC(=O)[C@@H](CC2CCCCC2)NC(=O)[C@H](CCCN)NC(=O)[C@H](CCCNC(N)=O)NC(=O)[C@H](Cc2ccc(-c3ccccc3)cc2)NC1=O [Compound 1645] ({CH2CO}-Y(Carboxymethyl)[4Pal]DWV[Bip][Cit][Orn][dCha][Dab][Cha]VTCA-NH2; thioether N-14) | 20.3 |
| Cc1cccc(C[C@@H]2NC(=O)[C@H](CC(=O)O)NC(=O)[C@H](Cc3ccncc3)NC(=O)[C@H](Cc3ccc(OCC(=O)O)cc3)NC(=O)CSC[C@@H](C(=O)N[C@@H](C)C(N)=O)NC(=O)[C@H]([C@@H](C)O)NC(=O)[C@H](C(C)C)NC(=O)[C@H](CC3CCCCC3)NC(=O)[C@H](CCN)NC(=O)[C@@H](CC(C)C)NC(=O)[C@H](CCCN)NC(=O)[C@H](CCCNC(N)=O)NC(=O)[C@H](Cc3ccc(-c4ccccc4)cc3)NC(=O)[C@H](C(C)C)NC2=O)c1 [Compound 1325] ({CH2CO}-Y(Carboxymethyl)[4Pal]D[Phe(3-Me)]V[Bip][Cit][Orn][dL][Dab][Cha]VTCA-NH2; thioether N-14) | 3.1 |

Continued, values first:

| IC50 [nM] | Compound |
| --- | --- |
| 12 | CCC(C)[C@@H]1NC(=O)[C@H](Cc2ccc(-c3ccccc3)cc2)NC(=O)[C@H](C(C)C)NC(=O)[C@H](Cc2cccc(C)c2)NC(=O)[C@H](CC(=O)O)NC(=O)[C@H](Cc2cccnc2)NC(=O)[C@H](CC(N)=O)NC(=O)CSC[C@@H](C(=O)N[C@@H](C)C(N)=O)NC(=O)[C@H]([C@@H](C)O)NC(=O)[C@H](C(C)C)NC(=O)[C@H](CC2CCCCC2)NC(=O)[C@H](CCN)NC(=O)[C@@H](CC(C)C)NC(=O)[C@H](CCCN)NC1=O (stereo partly drawn) [Compound 2233] ({CH2CO}-N[3Pal]D[Phe(3-Me)]V[Bip][Ile(3ξ)][Orn][dL][Dab][Cha]VTCA-NH2; thioether N-14) |
| 10.6 | Cc1cccc(C[C@@H]2NC(=O)[C@H](CC(=O)O)NC(=O)[C@H](Cc3ccc(C(=O)O)cc3)NC(=O)[C@H](Cc3ccncc3)NC(=O)CSC[C@@H](C(=O)N[C@H](CC(N)=O)C(N)=O)NC(=O)[C@H](CO)NC(=O)[C@H](C(C)C)NC(=O)[C@H](CC3CCCCC3)NC(=O)[C@H](CCN)NC(=O)[C@@H](CC(C)C)NC(=O)[C@H](CCCN)NC(=O)[C@H](Cc3ccc(O)cc3)NC(=O)[C@H](Cc3ccc(-c4ccccc4)cc3)NC(=O)[C@H](C(C)C)NC2=O)c1 [Compound 2291] ({CH2CO}-[4Pal][Phe(4-COOH)]D[Phe(3-Me)]V[Bip]Y[Orn][dL][Dab][Cha]VSC[dN]-NH2; thioether N-14) |
| 14 | CC(C)C[C@@H]1NC(=O)[C@H](Cc2c[nH]c3ccccc23)NC(=O)[C@H](CC(=O)O)NC(=O)[C@H](Cc2ccc(OCC(=O)O)cc2)NC(=O)[C@H](CCN)NC(=O)CSC[C@@H](C(=O)N[C@@H](CC(N)=O)C(N)=O)NC(=O)[C@H](CO)NC(=O)[C@H](C(C)C)NC(=O)[C@H](CC2CCCCC2)NC(=O)[C@H](CCN)NC(=O)[C@@H](CC(C)C)NC(=O)[C@H](CCCN)NC(=O)[C@H](C(C)O)NC(=O)[C@H](Cc2ccc(-c3ccccc3)cc2)NC1=O (stereo partly drawn) [Compound 2558] ({CH2CO}-[Dab]Y(Carboxymethyl)DWL[Bip][Thr(3ξ)][Orn][dL][Dab][Cha]VSCN-NH2; thioether N-14) |
| 7.7 | CC(C)C[C@H]1NC(=O)[C@H](CCCN)NC(=O)[C@H](CCC(=O)O)NC(=O)[C@H](Cc2ccc(-c3ccccc3)cc2)NC(=O)[C@H](C(C)C)NC(=O)[C@H](Cc2c[nH]c3ccccc23)NC(=O)[C@H](CC(=O)O)NC(=O)[C@H](Cc2ccc(-c3cccc(C(=O)O)c3)cc2)NC(=O)[C@H](CN)NC(=O)CSC[C@@H](C(=O)N[C@@H](C)C(N)=O)NC(=O)[C@H]([C@@H](C)O)NC(=O)[C@H](C(C)C)NC(=O)[C@H](CC2CCCCC2)NC(=O)[C@H](CCN)NC1=O [Compound 2162] |
| 3.4 | CC(C)C[C@H]1NC(=O)[C@H](CCCN)NC(=O)[C@H](Cc2ccc(C(=O)O)cc2)NC(=O)[C@H](Cc2ccc(-c3ccccc3)cc2)NC(=O)[C@H](CCc2ccccc2)NC(=O)[C@H](Cc2cccc(C(F)(F)F)c2)NC(=O)[C@H](CC(=O)O)NC(=O)[C@H](Cc2ccc(C(=O)O)cc2)NC(=O)[C@H](CN2CCOCC2)NC(=O)CSC[C@@H](C(=O)N[C@@H](CCN)C(N)=O)NC(=O)[C@H](CCC(=O)O)NC(=O)[C@H](C(C)C)NC(=O)[C@H](CC2CCCCC2)NC(=O)[C@H](CCN)NC1=O [Example 2744] ({CH2CO}-[Ala(morpholin-4-yl)][Phe(4-COOH)]D[Phe(3-CF3)][hPhe][Bip][Phe(4-COOH)][Orn][dL][Dab][Cha]VEC[Dab]-NH2; thioether N-14) |
| 322 | CC(C)C[C@H]1NC(=O)[C@H](CCCN)NC(=O)[C@H](CCC(=O)O)NC(=O)[C@H](Cc2ccc(-c3ccccc3)cc2)NC(=O)[C@H](C(C)C)NC(=O)[C@H](Cc2cccnc2)NC(=O)[C@H](CC(=O)O)NC(=O)[C@H](Cc2ccc(OCC(=O)O)cc2)NC(=O)[C@H](CN)NC(=O)CSC[C@@H](C(=O)N[C@@H](C)C(N)=O)NC(=O)[C@H]([C@@H](C)O)NC(=O)[C@H](C(C)C)NC(=O)[C@H](CC2CCCCC2)NC(=O)[C@H](CCN)NC1=O [Compound 2156] ({CH2CO}-[Dap]Y(Carboxymethyl)D[3Pal]V[Bip]E[Orn][dL][Dab][Cha]VTCA-NH2; thioether N-14) |
